Data from patent US10946024B2, “Method for treating cancer” (Epizyme, Inc., priority 2014, dated 2021).

System: H3K27me3 in HS-SY-II xenograft
Experiment: H3K27me3 by ELISA in HS-SY-II xenograft tumors harvested on Day 28 (second study)
Type: in vivo, mice
Details: Day 28, 3 h after the last dose
Experimental: FIGS. 10A to 10C show mean in vivo tumor volumes for athymic nude mice bearing HS-SY-II xenografts. In a first study, mice were dosed with either vehicle (oral for 28 days or iv on Day 1 and Day 22), Compound A (oral: 125 mg/kg, 250 mg/kg, or 500 mg/kg for 28 days), or Doxorubicin (iv: 10 mg/kg, Day 1 and Day 22); tumor volumes were measured twice a week (FIGS. 10A and 10B). In a second study, mice were dosed with either vehicle (oral for 28 days), Compound A (oral: 250 mg/kg or 500 mg/kg for 28 days), Doxorubicin (iv: 10 mg/kg on Day 1 and Day 22), or a combination of Doxorubicin (iv: 10 mg/kg on Day 1 and Day 22) and Compound A (oral: 250 mg/kg for 28 days) (FIG. 10C). Tumors from animals of the second study were harvested on Day 28 (3 h after the last dose) and subjected to H3K27me3 analysis by ELISA (FIG. 10D) or IHC for the proliferation marker Ki67 (FIG. 10E).
For FIG. 10D, tumors were snap-frozen in liquid nitrogen. […] Histones were quantified using the BCA protein assay (23225, Pierce). […] Subsequently, the developed colors in the wells were measured using a plate spectrophotometer (SpectraMax 250, Molecular Devices) at 450 nm (reference wavelength 650 nm). The H3K27me3 levels were adjusted to total histone H3, and expressed as fold changes to vehicle control. […] Histones were extracted and quantified, and the levels of H3K27me3 were analyzed as described above. […]

## CCN(c1cc(-c2ccc(CN3CCOCC3)cc2)cc(C(=O)NCc2c(C)cc(C)[nH]c2=O)c1C)C1CCOCC1 [Compound A]
  H3K27me3 levels in tumors: significantly reduced
